Results reported in patent US11407723B2, “Selective histone deacetylase inhibitors for the treatment of human disease” (Shuttle Pharmaceuticals, Inc., priority 2018, dated 2022).

What was measured:
Format in all cases: biochemical
HDAC6 protein = target: T1, HDAC6 protein (Homo sapiens, UniProt Q9UBN7); test: in vitro HDAC enzyme inhibition assay, HDAC6; details: for inhibitory activity against HDAC6 protein: FIGS. 1 and 2A-2C
T1 sequence (Q9UBN7 1-1215): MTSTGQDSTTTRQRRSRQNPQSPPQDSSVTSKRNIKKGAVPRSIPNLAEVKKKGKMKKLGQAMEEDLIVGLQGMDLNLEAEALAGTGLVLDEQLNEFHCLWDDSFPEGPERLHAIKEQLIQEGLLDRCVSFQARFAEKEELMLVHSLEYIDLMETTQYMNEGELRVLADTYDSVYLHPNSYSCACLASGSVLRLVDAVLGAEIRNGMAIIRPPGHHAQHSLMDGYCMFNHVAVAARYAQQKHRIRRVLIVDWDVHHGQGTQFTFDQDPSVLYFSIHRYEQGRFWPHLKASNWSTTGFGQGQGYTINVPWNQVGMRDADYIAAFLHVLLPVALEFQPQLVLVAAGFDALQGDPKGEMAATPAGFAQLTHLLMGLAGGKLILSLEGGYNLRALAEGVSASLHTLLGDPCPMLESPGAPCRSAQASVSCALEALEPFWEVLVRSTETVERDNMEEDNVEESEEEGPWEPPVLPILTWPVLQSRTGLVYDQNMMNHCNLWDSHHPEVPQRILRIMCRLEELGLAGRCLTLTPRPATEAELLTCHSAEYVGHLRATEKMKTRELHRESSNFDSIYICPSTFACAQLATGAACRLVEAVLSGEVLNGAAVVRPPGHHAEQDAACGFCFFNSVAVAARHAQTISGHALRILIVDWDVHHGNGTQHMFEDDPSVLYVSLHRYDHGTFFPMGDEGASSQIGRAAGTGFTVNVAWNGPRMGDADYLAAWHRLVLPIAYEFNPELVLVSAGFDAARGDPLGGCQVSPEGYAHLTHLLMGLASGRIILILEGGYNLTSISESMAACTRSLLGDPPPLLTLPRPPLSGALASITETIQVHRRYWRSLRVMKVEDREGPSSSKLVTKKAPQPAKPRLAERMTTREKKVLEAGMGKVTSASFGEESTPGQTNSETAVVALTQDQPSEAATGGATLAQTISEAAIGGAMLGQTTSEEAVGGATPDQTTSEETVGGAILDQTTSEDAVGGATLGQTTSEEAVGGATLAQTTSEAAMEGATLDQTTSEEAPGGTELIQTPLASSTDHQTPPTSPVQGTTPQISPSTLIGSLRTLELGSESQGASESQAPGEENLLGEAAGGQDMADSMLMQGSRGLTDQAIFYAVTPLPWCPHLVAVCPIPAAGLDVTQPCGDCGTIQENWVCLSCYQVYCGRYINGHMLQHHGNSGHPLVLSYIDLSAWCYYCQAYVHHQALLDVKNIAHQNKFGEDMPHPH
Protocol: (§1) The compounds were tested against Pan HDAC, HDAC1, HDAC3, and HDAC6 proteins in vitro.

HDAC1 protein = HDAC1 protein (Homo sapiens, UniProt Q13547); test: in vitro HDAC enzyme inhibition assay, HDAC1 (selectivity of HDAC6 over HDAC1); details: HDAC6 vs HDAC1
Protocol: as §1

HDAC3 protein = HDAC3 protein (Homo sapiens, UniProt O15379); test: in vitro HDAC enzyme inhibition assay, HDAC3 (selectivity of HDAC6 over HDAC3); details: HDAC6 vs HDAC3
Protocol: as §1

Chain of HDAC3 protein (O15379 whole entry): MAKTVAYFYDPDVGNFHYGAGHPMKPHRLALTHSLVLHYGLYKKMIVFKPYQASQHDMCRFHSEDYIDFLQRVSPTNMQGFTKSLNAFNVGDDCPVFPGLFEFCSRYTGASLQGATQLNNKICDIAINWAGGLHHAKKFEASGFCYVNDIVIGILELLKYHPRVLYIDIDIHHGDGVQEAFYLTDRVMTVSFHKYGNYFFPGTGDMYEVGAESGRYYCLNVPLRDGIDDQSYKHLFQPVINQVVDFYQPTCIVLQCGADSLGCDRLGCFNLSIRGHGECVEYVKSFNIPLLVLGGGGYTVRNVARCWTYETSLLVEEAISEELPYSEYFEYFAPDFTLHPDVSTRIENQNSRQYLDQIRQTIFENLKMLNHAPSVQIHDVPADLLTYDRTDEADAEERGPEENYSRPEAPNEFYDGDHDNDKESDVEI
Chain of HDAC3 protein (Q9Y618 395-489 partner limits assumed): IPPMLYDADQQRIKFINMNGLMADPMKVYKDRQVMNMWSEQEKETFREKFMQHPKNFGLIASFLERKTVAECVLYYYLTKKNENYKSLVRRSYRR
Chain of HDAC1 protein (Q13547 whole entry): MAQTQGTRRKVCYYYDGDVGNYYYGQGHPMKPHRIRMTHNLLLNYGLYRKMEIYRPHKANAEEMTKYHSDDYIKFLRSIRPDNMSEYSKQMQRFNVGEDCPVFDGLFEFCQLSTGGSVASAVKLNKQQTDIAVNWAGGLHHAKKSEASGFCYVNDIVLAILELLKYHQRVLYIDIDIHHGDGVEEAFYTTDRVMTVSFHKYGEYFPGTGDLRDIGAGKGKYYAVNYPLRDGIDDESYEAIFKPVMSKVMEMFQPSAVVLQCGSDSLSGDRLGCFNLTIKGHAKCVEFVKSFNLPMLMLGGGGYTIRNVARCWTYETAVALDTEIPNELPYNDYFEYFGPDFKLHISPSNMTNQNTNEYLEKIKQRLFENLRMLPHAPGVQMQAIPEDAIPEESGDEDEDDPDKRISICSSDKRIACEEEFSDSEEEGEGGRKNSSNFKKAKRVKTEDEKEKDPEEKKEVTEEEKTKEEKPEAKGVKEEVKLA

inhibitory activity against HDAC6 protein (HDAC6 protein)	selectivity for HDAC6 as compared to Pan-HDACs, HDAC1 and HDAC3 (in words) (HDAC6 protein)	times more selective for HDAC6 as compared to HDAC1 (HDAC1 protein)	times more selective for HDAC6 as compared to HDAC3 (HDAC3 protein)	SMILES
inhibitors of HDAC6	selective inhibitors of HDAC6	about 65 times	about 22 times	Cc1cc(CNCCCCCC(=O)NO)ccc1OCc1cccc(-c2ccccc2)c1C [SP-2-225, N-hydroxy-6-((3-methyl-4-((2-methyl-[1,1′-biphenyl]-3-yl)methoxy)benzyl)amino)hexanamide]
inhibitors of HDAC6	selective inhibitors of HDAC6	about 4 times	about 12 times	Cc1nnc(NS(=O)(=O)c2ccc(NC(=O)CCCCCCC(=O)NO)cc2)s1 [SP-2-213, N^1-hydroxy-N^8-(4-(N-(5-methyl-1,3,4-thiadiazol-2-yl)sulfamoyl)phenyl) octanediamide]
